In patent US20080145346A1, “Methods And Compounds For Altering The Load Of Hepatitis Virus” (Agency for Science, Technology and Research, priority 2003, published 2008):

Tested on: hnRNP K
Experiment: Electrophoretic Mobility Shift Assay (EMSA) of HBV enhancer II probes with HepG2 nuclear extracts
Type: binding, human
Conditions: 10 μg HepG2 nuclear extracts; 32P end-labelled 28-mer probe
Protocol: 28-mer oligonucleotide probes were designed to contain either the 1752A or 1752G nucleotide with control probes taken from the adjacent upstream sequence. EMSA was performed using HepG2 nuclear extracts with the four respective probes. Probe 1 (SEQ ID NO: 12): Lanes 1 to 4; Probe 2 (SEQ ID NO: 13, A^1752): Lanes 5 to 8; Probe 3 (SEQ ID NO: 14): Lanes 9 to 12; Probe 4 (SEQ ID NO: 15, G^1752): Lanes 13 to 16. Each set of probes contains increasing concentrations (0.0 μg, 0.05 μg, 0.10 μg and 0.15 μg) of non-specific competitor DNA of [poly-(dI)-poly-(dC)] respectively. This competitor DNA is included to minimize the binding of nonspecific proteins to the labeled probes. DNA-protein complexes migrate at a different speed than free DNA molecules. […] Verification of the presence of hnRNP K as the second component in the complex can subsequently be performed by an analysis as shown in FIG. 19. hnRNP K was detected using the 1752A probe (Probe 2, lanes 5 to 8) along with a weaker band of similar size using the 1752G probe (Probe 4, lanes 13 to 16). […]
HBV-hnRNP K interaction was analysed by a method that is known to persons skilled in the art as an “electrophoretic mobility shift assay” or “EMSA”. […] The 1752A probe (Probe 2, lanes 5 to 8) detected hnRNP K in form of a band. A corresponding weaker band of hnRNP was detected by the 1752G probe (Probe 4, lanes 13 to 16 in FIG. 18).

AGTTGGGGGAGGAGATTAGGTTAAAGGT (listed as DNA, chemistry not given here) [Probe 2, 28-mer HBV enhancer II oligonucleotide probe containing 1752A]
densitometric band signal of hnRNP K higher than that detected by Probe 4: about 300%
